Reference: article PMC10305181, “A VEGFB-Based Peptidomimetic Inhibits VEGFR2-Mediated PI3K/Akt/mTOR and PLCγ/ERK Signaling and Elicits Apoptotic, Antiangiogenic, and Antitumor Activities” (Pharmaceuticals, 2023)
Like-named read-outs stand apart in the source and are kept apart here. Bridge positions count the residues as written; N and C are the ends. Peptide text beside a SMILES is read from it.

Tests used:
[1] = body weight / tolerability of treated 4T1 tumor-bearing mice; assay type: in vivo; conditions: 0.2 mg·kg^−1 i.v. once every 2 days
Procedure: Figure 2 Loop formation is important for the antitumor activity of VGB3. (A) To investigate the efficacy of VGB3 peptides in vivo 13 days after transplantation of a 4T1 murine MCT into female BALB/c mice (the tumor volume ~150 mm^3), the treatment groups received 0.2 mg·kg^−1 (once every 2 days, i.v.) of either the C-VGB3 or L-VGB3 and the control group received PBS for 20 days. Error bars denote ± SEM. n = 6; **** p < 0.0001, ns = not significant; two-way ANOVA. (B) Investigation of C-VGB3 and L-VGB3 effects on mice weight. […] (C,D) Immunohistochemical (IHC) analyses of CD31 and Ki67 for the C-VGB3-, L-VGB3- and PBS-treated tumors. For IHC staining, the sections of tumor tissues were incubated with the primary mouse monoclonal antibodies for CD31 (1:2000 (v/v)) and Ki67 (5 µg·mL^−1). […] Photographs were taken at 40× magnification. Error bars denote ± SEM. n = 3; * 0.02 ≤ p ≤ 0.04, ns = not significant; one-way ANOVA.
The antitumor efficacy of the peptides was investigated as described previously. Thirteen days after implanting, tumor (~150 mm^3)-bearing mice were grouped randomly into control and treated animals (6/group). From day 13 to day 33, the treatment group received cyclic or linear VGB3 (0.2 mg·kg^−1), whereas the control group received an equal volume of PBS (i.v., once every two days). The volume of tumors was calculated as 0.52 × length × width^2. In addition, changes in the weight of animals were recorded every 2 days.

HUVECs [2] = assay: MTT assay, HUVECs; assay type: cell-based, human; conditions: VEGF 20 ng·mL^−1, C-VGB3 0–0.91 μM, n = 3, read-out: half-inhibitory concentration (IC50), cell viability
Procedure: Figure 4 Inhibition of EC proliferation and tubulogenesis by C-VGB3 through abrogation of VEGFR2-mediated signaling pathways. (A) MTT assay was performed to investigate C-VGB3 effect on the proliferation of ECs. C-VGB3 (0–0.91 μM) was used with (20 ng·mL^−1) or without VEGF. The control cells were treated with no peptide. After 24 and 48 h, the absorbance was measured at 570 nm utilizing an ELISA plate reader (Space Fax 2100, Awareness, Westport, CT, USA). Error bars indicate ± SEM. n = 3; * p = 0.02, ** p = 0.001, *** and ### p = 0.0001, **** and #### p < 0.0001, ns = not significant; one-way ANOVA. (B) The anti-tubulogenesis effect of C-VGB3 in VEGF (20 ng·mL^−1)-induced HUVECs. Image analysis performed by Wimasis image analysis software is illustrated in the bottom panel. Error bars indicate ±SEM. n = 3; *** 0.0004 ≤ p ≤ 0.0001; unpaired Student’s t-test. To evaluate the mechanism by which C-VGB3 diminished cell proliferation and tube formation, Western blot analysis was performed for HUVECs. […]
(§1) The effects of C-VGB3 and L-VGB3 on the cell survival of HUVE and 4T1 cell lines were investigated using the MTT assay, as previously described, with some modifications. […] After 24 and 48 h of incubation at 37 °C, the absorbance at 570 nm was recorded using an ELISA plate reader (Space Fax 2100, Awareness, Palm City, FL, USA). […]

4T1 MCT cells = assay: MTT assay, 4T1 MCT cells; assay type: cell-based, murine; conditions: C-VGB3 0–1.81 μM, n = 3, read-out: IC50, proliferation
Procedure: Figure 5 Suppression of 4T1 cell proliferation and metastasis by C-VGB3 through blockade of VEGFR2 signaling pathways. (A) MTT assay was performed to investigate C-VGB3 effect on the proliferation of 4T1 tumor cells in vitro. C-VGB3 was used at concentrations 0–1.81 μM in the presence (20 ng·mL^−1) or the absence of VEGF. The control cells were treated with no peptide. After 24 and 48 h, the absorbance was measured at 570 nm utilizing an ELISA plate reader (Space Fax 2100, Awareness, Westport, CT, USA). Error bars represent ± SEM. n = 3; * p = 0.0 2, ** p = 0.001, *** and ### p = 0.0001, **** and #### p < 0.0001, ns = not significant; one-way ANOVA. (B) To evaluate the mechanism by which C-VGB3 diminished cell proliferation and metastasis, Western blot analysis was performed for 4T1 cells. […] Error bars represent ± SEM. n = 3; * p = 0.02, ** p = 0.001, *** p = 0.0001, **** p < 0.0001, ns = not significant; one-way ANOVA.
as §1

HUVECs [3] = assay: Annexin V/PI flow cytometry, HUVECs; assay type: cell-based, human; conditions: 0.40 μM, 24 h, VEGF 20 ng·mL^−1; control 9.61; n = 3; p < 0.0001; in % (unit assumed)
Procedure: (§2) An important consequence of VEGF signals is cell survival dominantly via PI3K/AKT/mTOR pathway. Thus, inhibition of VEGF signals leads to the induction of apoptosis. Accordingly, the ability of C-VGB3 to induce apoptosis was investigated. First, apoptotic endothelial and tumor cells were analyzed by flow cytometry after staining with annexin V-FITC and PI. (Figure 6A). Treatment with C-VGB3 (0.40 μM) induced significant apoptosis in both cell lines compared to the controls. […] Apoptosis induction by C-VGB3 was further characterized by the TUNEL assay, as an indicator of late apoptosis, with a confocal microscope (Figure 6B).
(§3) Annexin V/Propidium Iodide flow cytometry was performed to investigate the C-VGB3 effect on apoptosis induction, as previously described, with some modifications. […]

4T1 cells = assay: Annexin V/PI flow cytometry, 4T1 cells; assay type: cell-based, murine; conditions: 0.40 μM, 24 h, VEGF 20 ng·mL^−1; control 1.80; n = 3; p < 0.0001
Procedure: as §2, §3

SMILES: CC(C)C[C@@H]1NC(=O)CNC(=O)[C@H](CC(=O)O)NC(=O)[C@H](CC(=O)O)NC(=O)[C@@H]2CCCN2C(=O)[C@@H]2CCCN2C(=O)[C@H](CCCNC(=N)N)NC(=O)[C@@H](NC(=O)[C@@H](N)CCC(=O)O)CSSC[C@@H](C(=O)O)NC1=O [C-VGB3] (H-ECRPPDDGLC-OH; disulfide 2-10)
- toxicity at this dosage (weight gain) ([1]; three weeks): not toxic
- mice weight vs control groups ([1]; two-way ANOVA): no significant differences
- IC50 (HUVECs [2]; 24 h): 510 nM
- IC50 (HUVECs [2]; 48 h): 380 nM
- IC50 (4T1 MCT cells; 24 h): 560 nM
- IC50 (4T1 MCT cells; 48 h): 370 nM
- level of apoptotic cells (HUVECs [3]): 56.62
- level of apoptotic cells (4T1 cells): 22.6%
